According to ChEMBL document CHEMBL5543075, “Phenoxytacrine derivatives: Low-toxicity neuroprotectants exerting affinity to ifenprodil-binding site and cholinesterase inhibition” (Eur J Med Chem, 2024):
Calls of active or inactive are those of the source. No cut-off for these calls is given here.

What was measured:
[1] = Toxicity in Wistar rat assessed as no observed adverse effect level (NOAEL) at 20 mg/kg, ip measured after 10 to 15 mins; type: organism-based; conditions: in vivo, time 10-15 min
in vitro [2] = conditions: human, liver microsomes
Description: Metabolic stability in human liver microsomes assessed as half life at 3 uM measured upto 45 min in presence of NADPH regenerating system by LC-MS analysis

[3] = Cytotoxicity against CHO-K1 cells incubated for 24 hrs by MTT assay; type: toxicity, cell-based, Cricetulus griseus; conditions: Chinese hamster
in vitro [4] = conditions: human, liver microsomes; remark: listed apart in the source
Description: Metabolic stability in human liver microsomes assessed as intrinsic clearance at 3 uM measured upto 45 min in presence of NADPH regenerating system by LC-MS analysis

[5] = target: T1, Glutamate NMDA receptor; GRIN1/GRIN2B (Homo sapiens, UniProt Q05586+Q13224); assay: Inhibition of recombinant human GluN1/GluN2B receptor expressed in HEK293 cells assessed as reduction in glutamate induced current at 1 uM at -60 mV holding potential by electrophysiology assay relative to control; type: cell-based
Rattus norvegicus [6] = assay: Antipsychotic activity in Wistar rat assessed as effect on locomotor activity at 2 mg/kg, ip measured after 10 mins by open field test; type: functional, organism-based
[7] = target: T1, Glutamate NMDA receptor; GRIN1/GRIN2B; assay: Inhibition of recombinant wild type human GluN1/GluN2B receptor expressed in HEK293 cells assessed as reduction in glutamate induced current at -60 mV holding potential by electrophysiology assay; type: cell-based
[8] = Toxicity in Wistar rat assessed as no observed adverse effect level (NOAEL) at 10 mg/kg, ip; type: organism-based; conditions: in vivo
[9] = Inhibition of recombinant human GluN1 deltaATD/GluN2B receptor expressed in HEK293 cells assessed as reduction in glutamate induced current at -60 mV holding potential by electrophysiology assay; type: cell-based
Rattus norvegicus [10] = assay: Antialzheimer activity against scopolamine-induced cognitive impairment in Wistar rat assessed as decrease in latency to reach platform at 2 mg/kg, ip measured upto 4 days by morris water maze test; type: functional, organism-based; conditions: time <= 4.0 day
Hippocampal neurone = assay: Neuroprotective activity against NMDA-induced cell injury in rat Hippocampal neuron cells assessed as decrease in damage score at 30 uM measured after 24 hrs by FJB staining based microscopy; type: functional
[11] = target: Glutamate NMDA receptor; GRIN1/GRIN2A (Homo sapiens, UniProt Q05586+Q12879); assay: Inhibition of recombinant wild type human GluN1/GluN2A receptor expressed in HEK293 cells assessed as reduction in glutamate induced current at -60 mV holding potential by electrophysiology assay; type: cell-based
Rattus norvegicus [12] = assay: Antipsychotic activity in Wistar rat assessed as effect on pre-pulse inhibition of acoustic startle response at 2 mg/kg, ip measured after 10 mins by pre-pulse inhibition test; type: functional, organism-based
Cholinesterase = Cholinesterase (Homo sapiens, UniProt P06276); assay: Inhibition of human BChE by spectrophotometric Ellman's method
Acetylcholinesterase = Acetylcholinesterase (Homo sapiens, UniProt P22303); assay: Inhibition of human AChE by spectrophotometric Ellman's method
Rattus norvegicus [13] = assay: Antialzheimer activity against scopolamine-induced cognitive impairment in Wistar rat assessed as increase in number of platform crossing at 2 mg/kg, ip measured upto 4 days by morris water maze test; type: functional, organism-based; conditions: time <= 4.0 day
Rattus norvegicus [14] = assay: Antialzheimer activity against scopolamine-induced cognitive impairment in Wistar rat assessed as decrease in mean distance from platform at 2 mg/kg, ip measured upto 4 days by morris water maze test (reference value: 51.7 +/-1.5 cm); type: functional; conditions: time <= 4 day
Rattus norvegicus [15] = assay: Antipsychotic activity in Wistar rat assessed as effect on locomotor activity at 0.2 mg/kg, ip measured after 10 mins by open field test; type: functional, organism-based
Rattus norvegicus [16] = assay: Antipsychotic activity in Wistar rat assessed as effect on pre-pulse inhibition of acoustic startle response at 0.3 mg/kg, ip measured after 10 mins by pre-pulse inhibition test; type: functional, organism-based

Cholinesterase, sequence (P06276 whole entry): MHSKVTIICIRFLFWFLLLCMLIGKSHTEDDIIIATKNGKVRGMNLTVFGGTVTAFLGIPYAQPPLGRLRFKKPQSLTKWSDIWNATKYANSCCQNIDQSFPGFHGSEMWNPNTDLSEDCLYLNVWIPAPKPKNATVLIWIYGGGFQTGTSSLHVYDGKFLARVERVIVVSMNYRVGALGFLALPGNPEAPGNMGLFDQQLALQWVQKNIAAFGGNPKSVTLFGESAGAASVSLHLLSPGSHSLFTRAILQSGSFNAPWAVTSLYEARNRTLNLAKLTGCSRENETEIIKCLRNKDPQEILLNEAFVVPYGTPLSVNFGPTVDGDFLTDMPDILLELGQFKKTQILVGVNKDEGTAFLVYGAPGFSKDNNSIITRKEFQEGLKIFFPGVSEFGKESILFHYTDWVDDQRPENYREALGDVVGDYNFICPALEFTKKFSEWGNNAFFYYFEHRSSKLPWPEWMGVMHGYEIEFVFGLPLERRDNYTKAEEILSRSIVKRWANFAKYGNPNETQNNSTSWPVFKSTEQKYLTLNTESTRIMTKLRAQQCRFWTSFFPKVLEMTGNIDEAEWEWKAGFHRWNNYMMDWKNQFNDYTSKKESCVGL
Acetylcholinesterase, sequence (P22303 whole entry): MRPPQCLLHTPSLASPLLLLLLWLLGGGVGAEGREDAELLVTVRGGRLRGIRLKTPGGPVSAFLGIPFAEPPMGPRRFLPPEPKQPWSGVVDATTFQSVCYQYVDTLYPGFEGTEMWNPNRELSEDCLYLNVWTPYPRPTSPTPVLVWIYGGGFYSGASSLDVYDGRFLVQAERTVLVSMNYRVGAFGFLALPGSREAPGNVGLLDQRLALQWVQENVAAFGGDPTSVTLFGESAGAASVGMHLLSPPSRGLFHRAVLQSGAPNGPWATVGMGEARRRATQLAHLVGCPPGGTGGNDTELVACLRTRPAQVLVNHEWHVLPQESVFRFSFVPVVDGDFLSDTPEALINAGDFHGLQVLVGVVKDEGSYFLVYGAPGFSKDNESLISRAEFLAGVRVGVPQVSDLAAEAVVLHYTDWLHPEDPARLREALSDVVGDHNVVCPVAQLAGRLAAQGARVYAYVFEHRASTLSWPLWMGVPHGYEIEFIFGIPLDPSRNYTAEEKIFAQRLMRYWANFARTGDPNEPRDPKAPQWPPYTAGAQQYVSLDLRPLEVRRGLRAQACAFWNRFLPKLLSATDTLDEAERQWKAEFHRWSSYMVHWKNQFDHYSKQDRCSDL
Glutamate NMDA receptor; GRIN1/GRIN2A, sequence (Q12879 whole entry, other chains not shown): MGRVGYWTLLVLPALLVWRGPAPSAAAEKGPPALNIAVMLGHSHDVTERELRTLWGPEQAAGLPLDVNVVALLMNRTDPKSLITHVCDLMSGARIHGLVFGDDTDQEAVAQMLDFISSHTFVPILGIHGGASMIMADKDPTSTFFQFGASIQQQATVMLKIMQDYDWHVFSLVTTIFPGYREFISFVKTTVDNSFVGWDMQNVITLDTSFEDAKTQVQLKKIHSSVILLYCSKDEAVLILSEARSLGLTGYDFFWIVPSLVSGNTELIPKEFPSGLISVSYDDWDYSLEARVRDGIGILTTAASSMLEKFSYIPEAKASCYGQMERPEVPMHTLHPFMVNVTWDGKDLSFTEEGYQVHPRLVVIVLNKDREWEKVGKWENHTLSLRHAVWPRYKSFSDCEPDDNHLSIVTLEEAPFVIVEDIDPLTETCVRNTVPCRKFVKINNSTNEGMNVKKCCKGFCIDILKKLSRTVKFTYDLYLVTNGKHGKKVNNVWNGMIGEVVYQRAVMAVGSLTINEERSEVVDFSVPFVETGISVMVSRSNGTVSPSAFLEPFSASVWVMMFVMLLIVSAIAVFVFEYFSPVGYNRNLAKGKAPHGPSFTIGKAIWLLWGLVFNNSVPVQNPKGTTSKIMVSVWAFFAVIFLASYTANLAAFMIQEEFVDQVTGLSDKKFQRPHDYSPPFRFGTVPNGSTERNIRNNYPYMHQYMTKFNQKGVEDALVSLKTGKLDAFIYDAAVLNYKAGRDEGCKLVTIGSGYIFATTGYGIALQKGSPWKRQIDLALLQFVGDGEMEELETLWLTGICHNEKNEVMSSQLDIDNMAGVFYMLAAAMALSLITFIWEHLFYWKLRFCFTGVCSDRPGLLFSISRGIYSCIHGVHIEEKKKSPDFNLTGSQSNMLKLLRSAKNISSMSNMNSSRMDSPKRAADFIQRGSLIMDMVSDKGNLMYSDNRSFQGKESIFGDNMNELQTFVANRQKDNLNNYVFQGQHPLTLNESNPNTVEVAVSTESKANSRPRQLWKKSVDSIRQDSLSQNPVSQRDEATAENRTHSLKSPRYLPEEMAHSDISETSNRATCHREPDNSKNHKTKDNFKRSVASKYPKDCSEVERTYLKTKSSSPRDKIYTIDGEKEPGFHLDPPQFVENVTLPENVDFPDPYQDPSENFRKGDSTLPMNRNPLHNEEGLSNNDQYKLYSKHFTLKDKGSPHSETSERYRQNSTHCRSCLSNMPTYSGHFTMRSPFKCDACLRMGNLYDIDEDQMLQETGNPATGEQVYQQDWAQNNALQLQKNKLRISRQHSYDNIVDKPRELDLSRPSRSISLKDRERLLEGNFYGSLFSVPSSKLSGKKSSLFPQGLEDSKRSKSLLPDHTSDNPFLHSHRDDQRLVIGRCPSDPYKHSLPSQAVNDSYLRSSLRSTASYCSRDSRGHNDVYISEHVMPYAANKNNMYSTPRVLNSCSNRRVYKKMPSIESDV

Structure (SMILES)	IC50 at 24 h [3]	inhibition [5]	IC50 (Cholinesterase)	IC50 (Acetylcholinesterase)	also measured
COc1ccccc1Oc1ccc2nc3c(c(N)c2c1)CCC3.Cl	68 µM	35%	5.48 µM	8.52 µM	Activity [1]: Toxic; half-life at 0.75 h, 3 µM (in vitro [2]): 1.16 h; microsomal CLint at 0.75 h, 3 µM (in vitro [4]): 20 µL/min/mg; Activity (Rattus norvegicus [6]): inactive; IC50 [7]: 2.4 µM; Activity [8]: Non-Toxic; IC50 [9]: 5.2 µM; Activity (Rattus norvegicus [10]): Active; Activity (Hippocampal neurone): Active; IC50 [11]: 5.1 µM; Activity (Rattus norvegicus [12]): inactive
CC(=O)c1ccc(Oc2ccc3nc4c(c(N)c3c2)CCC4)cc1	69 µM	9.5%	16.5 µM	5.76 µM	–
Cc1ccc(Oc2ccc3nc4c(c(N)c3c2)CCCCC4)cc1	140 µM	11.9%	2.78 µM	3.79 µM	–
COc1ccc(Oc2ccc3nc4c(c(N)c3c2)CCCCC4)cc1	28 µM	29.6%	2.74 µM	3.63 µM	–
Nc1c2c(nc3ccc(Oc4ccccc4)cc13)CCCCC2	38 µM	34.9%	1.4 µM	5.36 µM	–
Cc1ccccc1Oc1ccc2nc3c(c(N)c2c1)CCC3.Cl	78 µM	16.6%	–	28.2 µM	Activity (Rattus norvegicus [13]): Active; Activity (Rattus norvegicus [14]): 59.5 cm
C[C@]12N[C@H](Cc3ccccc31)c1ccccc12	–	–	–	–	Activity (Rattus norvegicus [15]): Active; Activity (Rattus norvegicus [16]): Active
COc1cccc(Oc2ccc3nc4c(c(N)c3c2)CCC4)c1	85 µM	16%	7.96 µM	5.25 µM	–
CC(C)(C)c1ccc(Oc2ccc3nc4c(c(N)c3c2)CCCCC4)cc1	9 µM	10.1%	2.51 µM	71.6 µM	–
Cc1cccc(Oc2ccc3nc4c(c(N)c3c2)CCCCC4)c1	13 µM	14.8%	2.74 µM	12.3 µM	–
Cc1cccc(Oc2ccc3nc4c(c(N)c3c2)CCCC4)c1	20 µM	21.2%	3.66 µM	9.19 µM	–
CC(C)(C)c1ccc(Oc2ccc3nc4c(c(N)c3c2)CCC4)cc1	11 µM	6.7%	3.11 µM	2.78 µM	–
COc1cccc(Oc2ccc3nc4c(c(N)c3c2)CCCC4)c1	27 µM	14.7%	2.76 µM	2.64 µM	–
Nc1c2c(nc3ccc(Oc4ccc(Cl)cc4)cc13)CCC2	28 µM	8.7%	3.6 µM	5.07 µM	–
CC(C)(C)c1ccc(Oc2ccc3nc4c(c(N)c3c2)CCCC4)cc1	5.1 µM	16%	6.61 µM	1.96 µM	–
Nc1c2c(nc3ccc(Oc4ccc(Cl)cc4)cc13)CCCC2	12 µM	14.2%	3.32 µM	2.92 µM	–
